# According to patent publication US20050106745A1, “Combination of solubility and membrane permeability measurement methods for profiling of chemical compounds” (AGY Therapeutics, Inc., priority 2003, published 2005):
# Structures can show the parent of a compound that is named as a salt. Where two headings read alike, the source gives them in different places.
# Assays:
# physchem = conditions: for solubility kinetic at 90 min / solubility at 90 min: kinetic from dmso stock
# Method: The aqueous and aqueous/methanol solutions were shaken for 90 minutes at room temperature. Using a 96-tip Biomek FX liquid handling system (Beckman Coulter, Fullterton, Calif.), the solutions were transferred to a MultiScreen-Solubility 96-well filterplate (MSSLBPC10, Millipore, Mass.), vacuum filtered, and collected into a clean 96-deepwell plate. […] The sample wells were diluted in the UV/Vis plate with pre-dispensed methanol (20% v/v) for spectroscopic consistency. The remaining portion of the filtrate was sealed and kept in a cool, dark place to be used within 2 hours in the permeability assay. […] The absorption spectra were then corrected for variance in path length by the PathCheck™ algorithm in the SoftMaxPro® software. Next, the optical density (OD) at an appropriate wavelength (λ) was determined for each compound by the analysis algorithm as follows: the UV-Visible spectra were analyzed with a program written in HPBASIC for Windows (TransEra Corporation, Orem, Utah). Briefly, from the spectrum of each well a heuristically matched, scaled and appropriately shifted baseline was subtracted. The locations (λ) and the values of all the peaks [OD(λ)] were then determined. […] In addition, built in user interface tools offered a convenient way to review and manually reassign the λ values to address special cases. When no peaks were found in the spectra, the OD values at 265 nm were used.
# For the solubility calculation, a consensus λ was determined for the sample and reference spectra and the corresponding OD values were used in equation (1). The concentrations of the compounds in solution were determined by the following formula: [formula] where OD(λ)sample and OD(λ)Reference are the optical densities at a given wavelength for each compound and [Reference] is the same compound at a known reference concentration.
# [1] = BBB-PAMPA effective permeability (Sol-PAMPA); conditions: for Papp at 16 h: PAMPA; for AGY Ranking (CNS+/CNS−): ranking from BBB-Sol-PAMPA Pe; for Pe × 10^−6 (effective BBB permeability): BBB-PAMPA, pH 7.4 to 7.4, input at solubility limit, 16 hours, n=7
# [2] = PAMPA
# [3] = cited from earlier work
# [4] = rat model, literature (Kelder et al. 1999); cited from earlier work
# [5] = cited from earlier work; remark: listed apart in the source
# in vitro = conditions: PAMPA, pH 7.4
structure (smiles),measurement,setting,value
"Cc1cc(NC(=O)C2=C(O)c3ccccc3S(=O)(=O)N2C)no1 [Isoxicam, isoxicam]",solubility kinetic at 90 min,"physchem; pH 7.4, aqueous buffer",322 µM
same,Papp at 16 h,[1]; pH 7.4,0.71 ×10⁻⁶ cm/s
same,AGY Ranking (CNS+/CNS−),[1],− (CNS- compounds have a Pe<2.0×10^−6 cm/sec)
"CN1CC[C@@]23CCCC[C@@H]2[C@@H]1Cc1ccc(O)cc13 [Dextrophan, dextrophan]",AGY Ranking (CNS+/CNS−),[2],+ (key: CNS+ compounds have a Pe>2.0×10^−6 cm/sec; CNS- compounds have a Pe<2.0×10^−6 cm/sec)
same,Pe × 10^−6 (effective BBB permeability),[2]; pH 7.4,3.14 ×10^−6 cm/sec
same,In Vivo CNS +/−,[3],+
same,pH 7.4 Solubility,"physchem; pH 7.4, Table 2 test set, n=7",300 μM
c1ccc2nc(N3CCNCC3)ccc2c1 [Quipazine],solubility kinetic at 90 min,"physchem; pH 7.4, aqueous buffer",239 µM
same,Papp at 16 h,[1]; pH 7.4,14.9 ×10⁻⁶ cm/s
same,AGY Ranking (CNS+/CNS−),[1],+ (CNS+ compounds have a Pe>2.0×10^−6 cm/sec)
"C[C@]12N[C@H](Cc3ccccc31)c1ccccc12 [MK-801, dizocilpine]",solubility kinetic at 90 min,"physchem; pH 7.4, aqueous buffer",212 µM
"CNCCCN1c2ccccc2CCc2ccccc21 [Desipramine, desipramine]",solubility at 90 min,"physchem; pH 3, aqueous buffer",> 350 µM
same,solubility at 90 min,"physchem; pH 5, aqueous buffer",> 350 µM
same,solubility at 90 min,"physchem; pH 7.4, aqueous buffer",> 350 µM
same,solubility kinetic at 90 min,"physchem; pH 7.4, aqueous buffer",274 µM
same,solubility at 90 min,"physchem; pH 9, aqueous buffer",> 350 µM
same,[Brain]/[Blood],[4],10.00
same,Papp at 16 h,[1]; pH 7.4,17.9 ×10⁻⁶ cm/s
same,AGY Ranking (CNS+/CNS−),[1],+ (CNS+ compounds have a Pe>2.0×10^−6 cm/sec)
same,Literature (solubility),[5]; pH 7.4,155 µM
"CN(C)CCC=C1c2ccccc2CCc2ccccc21 [Amitriptyline HCl, amitriptyline]",solubility kinetic at 90 min,"physchem; pH 7.4, aqueous buffer",163 µM
same,[Brain]/[Blood],[4],9.55
same,Papp at 16 h,[1]; pH 7.4,12.8 ×10⁻⁶ cm/s
same,AGY Ranking (CNS+/CNS−),[1],+ (CNS+ compounds have a Pe>2.0×10^−6 cm/sec)
c1cc(CN2CCCCC2)cc(OCCCNc2nc3ccccc3s2)c1 [Zolantidine],solubility kinetic at 90 min,"physchem; pH 7.4, aqueous buffer",108 µM
same,[Brain]/[Blood],[4],1.38
same,Papp at 16 h,[1]; pH 7.4,12.5 ×10⁻⁶ cm/s
same,AGY Ranking (CNS+/CNS−),[1],+ (CNS+ compounds have a Pe>2.0×10^−6 cm/sec)
"Cn1c(=O)c2[nH]cnc2n(C)c1=O [Theophylline, theophylline]",solubility at 90 min,"physchem; pH 3, aqueous buffer",330 µM
same,solubility at 90 min,"physchem; pH 5, aqueous buffer",337 µM
same,solubility at 90 min,"physchem; pH 7.4, aqueous buffer",290 µM
same,solubility at 90 min,"physchem; pH 9, aqueous buffer",> 350 µM
same,Literature (solubility),[5]; pH 7.4,>350 µM
"CC(C)(C)[N+]([O-])=Cc1ccccc1 [N-tert-Butyl-a-phenylnitrone, N-tert-Butyl-alpha-phenylnitrone]",AGY Ranking (CNS+/CNS−),[1],+ (CNS+ compounds have a Pe>2.0×10^−6 cm/sec)
"O=C(O)Cc1ccccc1Nc1c(Cl)cccc1Cl [Diclofenac, diclofenac]",solubility at 90 min,"physchem; pH 3, aqueous buffer",9 µM
same,solubility at 90 min,"physchem; pH 5, aqueous buffer",18 µM
same,solubility at 90 min,"physchem; pH 7.4, aqueous buffer",274 µM
same,solubility at 90 min,"physchem; pH 9, aqueous buffer",324 µM
same,Papp at 16 h,[1],~10 ×10⁻⁶ cm/s
same,Literature (solubility),[5]; pH 5,30 µM
same,Literature (solubility),[5]; pH 7.4,>350 µM
same,Literature (solubility),[5]; pH 9,>350 µM
"Nc1ccc(/N=N/c2ccccc2)c(N)n1 [Phenazopyridine, phenazopyridine]",solubility at 90 min,"physchem; pH 3, aqueous buffer",332 µM
same,solubility at 90 min,"physchem; pH 5, aqueous buffer",89 µM
same,solubility at 90 min,"physchem; pH 7.4, aqueous buffer",86 µM
same,solubility at 90 min,"physchem; pH 9, aqueous buffer",71 µM
same,Literature (solubility),[5]; pH 3,>350 µM
same,Literature (solubility),[5]; pH 5,150 µM
same,Literature (solubility),[5]; pH 7.4,58 µM
same,Literature (solubility),[5]; pH 9,49 µM
CN(C)C(=O)C(CCN1CCC(O)(c2ccc(Cl)cc2)CC1)(c1ccccc1)c1ccccc1 [Loperamide],Papp,in vitro,1.07 ×10⁻⁶ cm/s
same,solubility kinetic at 90 min,"physchem; pH 7.4, aqueous buffer",165 µM
same,AGY Ranking (CNS+/CNS−),[1],− (CNS- compounds have a Pe<2.0×10^−6 cm/sec)
"Clc1cccc(Cl)c1N=C1NCCN1 [Clonidine, clonidine]",solubility kinetic at 90 min,"physchem; pH 7.4, aqueous buffer",248 µM
same,[Brain]/[Blood],[4],1.29
same,Papp at 16 h,[1]; pH 7.4,2.01 ×10⁻⁶ cm/s
same,AGY Ranking (CNS+/CNS−),[1],+ (CNS+ compounds have a Pe>2.0×10^−6 cm/sec)
"Cn1c(=O)c2c(ncn2C)n(C)c1=O [Caffeine, caffeine]",AGY Ranking (CNS+/CNS−),[1],− (CNS- compounds have a Pe<2.0×10^−6 cm/sec)
"CN1C(C(=O)Nc2ccccn2)=C(O)c2ccccc2S1(=O)=O [Piroxicam, piroxicam]",solubility at 90 min,"physchem; pH 3, aqueous buffer",55 µM
same,solubility at 90 min,"physchem; pH 5, aqueous buffer",66 µM
same,solubility at 90 min,"physchem; pH 7.4, aqueous buffer",257 µM
same,solubility at 90 min,"physchem; pH 9, aqueous buffer",336 µM
same,Literature (solubility),[5]; pH 3,32 µM
same,Literature (solubility),[5]; pH 5,32 µM
same,Literature (solubility),[5]; pH 7.4,300 µM
same,Literature (solubility),[5]; pH 9,>350 µM
"COCCCC/C(=N\OCCN)c1ccc(C(F)(F)F)cc1 [Fluvoxamine, fluvoxamine]",solubility kinetic at 90 min,"physchem; pH 7.4, aqueous buffer",207 µM
"CC(C)NCC(O)COc1cccc2ccccc12 (centres unmarked) [Propranolol, s-propranolol]",solubility at 90 min,"physchem; pH 3, aqueous buffer",> 350 µM
same,solubility at 90 min,"physchem; pH 5, aqueous buffer",> 350 µM
same,solubility at 90 min,"physchem; pH 7.4, aqueous buffer",> 350 µM
same,solubility at 90 min,"physchem; pH 9, aqueous buffer",> 350 µM
same,Literature (solubility),[5]; pH 7.4,240 µM
"CNC(=C[N+](=O)[O-])NCCSCc1ccc(CN(C)C)o1 [Ranitidine HCl, ranitidine]",solubility kinetic at 90 min,"physchem; pH 7.4, aqueous buffer",174 µM
same,[Brain]/[Blood],[4],0.06
same,Papp at 16 h,[1]; pH 7.4,0.02 ×10⁻⁶ cm/s
same,AGY Ranking (CNS+/CNS−),[1],− (CNS- compounds have a Pe<2.0×10^−6 cm/sec)
Cl.NC1CCN(c2cccc(Cl)n2)CC1 [SR-57227A],pH 7.4 Solubility,"physchem; pH 7.4, Table 2 test set, n=7",294 μM
same,Pe × 10^−6 (effective BBB permeability),[1],6.12 ×10^−6 cm/sec
same,AGY Ranking (CNS+/CNS−),[1],+ (CNS+ compounds have a Pe>2.0×10^−6 cm/sec)
"CCn1cc(C(=O)O)c(=O)c2cc(F)c(N3CCNC(C)C3)c(F)c21 (centres unmarked) [Lomafloxacin, lomafloxacin]",pH 7.4 Solubility,"physchem; 90 min, pH 7.4",288 μM
same,Pe × 10^−6 (effective BBB permeability),[1],0.17 ×10^−6 cm/sec
same,AGY Ranking (CNS+/CNS−),[1],− (CNS- compounds have a Pe<2.0×10^−6 cm/sec)
"NC(=O)N1c2ccccc2C=Cc2ccccc21 [Carbamazepine, carbamazepine]",solubility kinetic at 90 min,"physchem; pH 7.4, aqueous buffer",253 µM
same,[Brain]/[Blood],[4],1.00
same,Papp at 16 h,[1]; pH 7.4,12.9 ×10⁻⁶ cm/s
same,AGY Ranking (CNS+/CNS−),[1],+ (CNS+ compounds have a Pe>2.0×10^−6 cm/sec)
